By melting point is commonly meant the temperature of the solid-liquid transition.

`COc1ccc2c(CN(C)C)cc(=O)oc2c1`: the melting point came to 97 °C. Next, `CNCc1cc(=O)oc2cc(OC)ccc12`: 109 to 109.5 °C.
